Legend:
human ETB receptor = molecular target: T1, human ETB receptor (Homo sapiens, UniProt P24530); test: ETB receptor binding test ([125I]-ET3, CHO cell membranes); details: cloned human ETB receptor, 25 pM [125I]-ET3, 25° C., 30 min
T1 construct: expressed in transfected cells; host or cells: CHO cells (membrane preparation)
T1 sequence (P24530 27-442): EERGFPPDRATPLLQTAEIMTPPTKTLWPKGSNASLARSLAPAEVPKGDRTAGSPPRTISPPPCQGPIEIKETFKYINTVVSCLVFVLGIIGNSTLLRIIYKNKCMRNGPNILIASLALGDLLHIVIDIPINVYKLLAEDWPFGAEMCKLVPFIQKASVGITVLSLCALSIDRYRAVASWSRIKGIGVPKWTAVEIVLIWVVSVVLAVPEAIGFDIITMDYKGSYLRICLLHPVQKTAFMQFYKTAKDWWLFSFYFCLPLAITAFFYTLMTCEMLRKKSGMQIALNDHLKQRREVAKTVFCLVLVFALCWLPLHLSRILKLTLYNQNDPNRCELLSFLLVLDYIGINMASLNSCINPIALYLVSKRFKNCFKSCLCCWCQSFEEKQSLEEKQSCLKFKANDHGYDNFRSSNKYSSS
Experimental: (§1) For binding studies, cloned human ETA or ETB receptor-expressing CHO cells were employed.
(§2) The ETA or ETB receptor-expressing CHO cells were proliferated in DMEM NUT MIX F12 medium (Gibco, No. 21331-020) using 10% fetal calf serum (PAA Laboratories GmbH, Linz, No. A15-022), 1 mM glutamine (Gibco No. 25030-024), 100 U/ml of penicillin and 100 μg/ml of streptomycin (Gibco, Sigma No P-0781). After 48 hours, the cells were washed with PBS and incubated at 37° C. for 5 minutes with 0.05% trypsin-containing PBS. Neutralization with medium was then carried out and the cells were collected by centrifugation at 300×g.
(§3) For the membrane preparation, the cells were adjusted to a concentration of 10^8 cells/ml of buffer (50 mM tris·HCL buffer, pH 7.4) and then disintegrated by means of ultrasound Branson Sonifier 250, 40-70 seconds/constant/output [sic] 20).
(§4) For the ETA and ETB receptor binding test, the membranes were suspended in incubation buffer (50 mM tris HCl, pH 7.4 with 5 mM MnCl2, […] of bacitracin and 0.2% BSA) in a concentration of 50 μg of protein per test batch and incubated at 25° C. with 25 pM [125I]-ET1 (ETA receptor test) or 25 pM [125I]-ET3 (ETB receptor test) in the presence or absence of test substance. The nonspecific binding was determined with 10^−7 M ET1. After 30 min, the free and the bound -radioligand were separated by filtration through GF/B glass fiber filters (Whatman, England) on a Skatron cell collector (Skatron, Lier, Norway) and the filters were washed with ice-cold tris HCl buffer, pH 7.4 with 0.2% BSA.
(§5) The radioactivity collected on the filters was quantified using a Packard 2200 CA liquid scintillation counter.
(§6) According to the binding test described above, receptor binding data were measured for the compounds shown below.

human ETA receptor = molecular target: T2, human ETA receptor (Homo sapiens, UniProt P25101); test: ETA receptor binding test ([125I]-ET1, CHO cell membranes); details: cloned human ETA receptor, 25 pM [125I]-ET1, 25° C., 30 min
T2 construct: expressed in transfected cells; host or cells: CHO cells (membrane preparation)
T2 sequence (P25101 21-427): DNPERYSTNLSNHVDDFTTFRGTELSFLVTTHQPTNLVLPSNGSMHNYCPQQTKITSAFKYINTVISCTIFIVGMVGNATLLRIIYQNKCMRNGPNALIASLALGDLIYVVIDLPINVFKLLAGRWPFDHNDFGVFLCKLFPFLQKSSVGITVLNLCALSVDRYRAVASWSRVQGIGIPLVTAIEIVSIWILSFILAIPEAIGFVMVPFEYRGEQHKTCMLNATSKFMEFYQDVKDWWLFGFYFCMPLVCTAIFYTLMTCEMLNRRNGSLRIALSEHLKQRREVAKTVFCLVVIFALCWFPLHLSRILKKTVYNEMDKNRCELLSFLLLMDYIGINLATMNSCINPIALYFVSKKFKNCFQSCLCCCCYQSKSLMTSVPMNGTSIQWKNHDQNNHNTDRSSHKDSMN
Experimental: as §1, §2, §3, §4, §5, §6

| Ki (human ETB receptor) [nM] | Ki (human ETA receptor) [nM] | Compound |
| --- | --- | --- |
| 210 | 145 | COc1ccc(CCOC(c2ccccc2)(c2ccccc2)C(Oc2nc(C)c(C)s2)C(=O)O)cc1OC (stereo not drawn) [Compound I-13, 2-(4,5-Dimethylthiazol-2-yloxy)-3-(2-(3,4-dimethoxyphenyl)-ethoxy)-3,3-diphenylpropionic Acid] |
| 650 | 13 | COC(c1ccccc1)(c1ccccc1)[C@H](Oc1nc(C)c(C)s1)C(=O)O [Compound I-1, (S)-2-(4,5-Dimethylthiazol-2-yloxy)-3-methoxy-3,3-diphenyl-propionic Acid] |
| 3100 | 29 | COC(c1ccccc1)(c1ccccc1)[C@H](Oc1nc(C)c(C)o1)C(=O)O [Compound I-4, (S)-2-(4,5-Dimethyloxazol-2-yloxy)-3-methoxy-3,3-diphenyl-propionic Acid] |
| > 7100 | 900 | COC(c1ccccc1)(c1ccccc1)[C@H](Oc1nc2ccccc2s1)C(=O)O [Compound I-6, (S)-2-(Benzothiazol-2-yloxy)-3-methoxy-3,3-diphenylpropionic Acid] |
| 485 | 215 | COc1ccc(CCOC(c2ccccc2)(c2ccccc2)C(Oc2nc(C)c(C)o2)C(=O)O)cc1OC (stereo not drawn) [Compound I-15, 2-(4,5-Dimethyloxazol-2-yloxy)-3-(2-(3,4-dimethoxyphenyl)-ethoxy)-3,3-diphenylpropionic Acid] |
| > 700 | 50 | COC(c1ccccc1)(c1ccccc1)[C@H](Oc1nc2c(s1)CCC2)C(=O)O [Compound I-5, (S)-2-(4,5-Cyclopentenothiazol-2-yloxy)-3-methoxy-3,3-diphenyl-propionic Acid] |
